Measurements: the NIST ThermoML archive (doi:10.1016/j.jct.2014.10.015)

Assay: mn = molality of the nth substance listed, in mol/kg
Settings: 101.3 kPa, Liquid, Vibrating tube method

O=c1cc[nH]c(=O)[nH]1 [2,4(1H,3H)-pyrimidinedione] + O
mass density [kg/m3]
Settings | 288.15 K | 298.15 K | 308.15 K | 318.15 K
m1 = 0.00553 | 999.354 | 997.267 | 994.275 | 990.452
m1 = 0.00878 | – | 997.396 | – | –
m1 = 0.01162 | 999.599 | 997.507 | 994.508 | 990.68
m1 = 0.01202 | – | 997.522 | – | –
m1 = 0.01509 | 999.736 | 997.643 | 994.639 | 990.808
m1 = 0.01724 | – | 997.727 | – | –
m1 = 0.01985 | 999.924 | 997.828 | 994.818 | 990.984
m1 = 0.02348 | – | 997.97 | – | –
m1 = 0.02387 | – | 997.985 | – | –
m1 = 0.02487 | – | 998.023 | – | –
m1 = 0.02578 | 1000.15 | 998.059 | 995.038 | 991.203
m1 = 0.03026 | 1000.33 | 998.232 | 995.205 | 991.367

Nc1cc[nH]c(=O)n1 [4-amino-2-hydroxypyrimidine] + O
mass density [kg/m3]
Settings | 288.15 K | 298.15 K | 308.15 K | 318.15 K
m1 = 0.00616 | 999.374 | 997.282 | 994.295 | 990.472
m1 = 0.01095 | 999.56 | 997.461 | 994.473 | 990.648
m1 = 0.01278 | – | 997.529 | – | –
m1 = 0.01633 | 999.767 | 997.66 | 994.67 | 990.845
m1 = 0.01855 | – | 997.743 | – | –
m1 = 0.01892 | – | 997.756 | – | –
m1 = 0.01961 | 999.894 | 997.779 | 994.791 | 990.964
m1 = 0.02682 | 1000.17 | 998.042 | 995.052 | 991.228
m1 = 0.02766 | – | 998.073 | – | –
m1 = 0.02813 | – | 998.09 | – | –
m1 = 0.03302 | 1000.4 | 998.264 | 995.271 | 991.452
m1 = 0.0353 | – | 998.345 | – | –

Cl.N=C(N)N [guanidine hydrochloride] + O
mass density [kg/m3]
Settings | m1 = 0.1 | m1 = 0.25 | m1 = 0.5 | m1 = 0.75 | m1 = 1
288.15 K | 1001.93 | 1006.02 | 1012.56 | 1018.77 | 1024.63
298.15 K | 999.788 | 1003.75 | 1010.1 | 1016.1 | 1021.79
308.15 K | 996.735 | 1000.63 | 1006.86 | 1012.74 | 1018.36
318.15 K | 992.885 | 996.736 | 1002.87 | 1008.68 | 1014.2

Cc1cn([C@H]2CC(O)[C@@H](CO)O2)c(=O)[nH]c1=O (stereo partly drawn) [thymidine] + O
mass density [kg/m3]
Settings | m1 = 0.00963 | m1 = 0.01114 | m1 = 0.01478 | m1 = 0.02291 | m1 = 0.02594 | m1 = 0.0288
288.15 K | 999.851 | 999.964 | 1000.24 | 1000.84 | 1001.06 | 1001.27
298.15 K | 997.759 | 997.871 | 998.139 | 998.733 | 998.954 | 999.162
308.15 K | 994.768 | 994.878 | 995.142 | 995.73 | 995.947 | 996.152
318.15 K | 990.937 | 991.046 | 991.306 | 991.881 | 992.094 | 992.294

Cc1c[nH]c(=O)[nH]c1=O [thymine] + O
mass density [kg/m3]
Settings | m1 = 0.00771 | m1 = 0.01299 | m1 = 0.01771 | m1 = 0.02319 | m1 = 0.02665 | m1 = 0.03315
288.15 K | 999.423 | 999.622 | 999.797 | 1000 | 1000.13 | 1000.37
298.15 K | 997.334 | 997.53 | 997.704 | 997.906 | 998.033 | 998.27
308.15 K | 994.344 | 994.535 | 994.705 | 994.901 | 995.023 | 995.252
318.15 K | 990.518 | 990.703 | 990.867 | 991.055 | 991.172 | 991.393
